The nature of data set [1]: Liver and body weight of nude mice bearing Mz-ChA-1 tumors. In kind it is in vivo, nude (nu/nu) mice. The conditions noted are these: 4 mg/kg BW IP three times a week. On the procedure: Experiments were performed to evaluate the in vivo effect of melatonin on the growth of cholangiocarcinoma cell lines implanted in the flanks of athymic mice (Francis H et al., 2009). Male BALB/c 6-wk-old nude (nu/nu) mice (Taconic Farms. Hudson, N.Y.) were kept in a temperature-controlled environment (20-22° C.) with 12-hr light-dark cycles, fed ad libitum standard mouse chow, and with free access to drinking water. Mz-ChA-1 cells (5×10^6) were suspended in 0.2 ml of extracellular matrix gel and injected subcutaneously in the rear flanks of the nude mice. After the establishment of the tumor (one week with a tumor size of ˜5 mm^3) mice (n=4) were treated with vehicle (5% ethanol in water) or melatonin (4 mg/kg BW, dissolved in 5% aqueous ethanol solution) (Sewerynek et al., 1995) by IP injections three times a week. Tumor variables were measured three times a week by an electronic caliper, and volume was determined as follows: tumor volume (mm^3)=0.5×[length (mm)×width (mm)×height (mm)]. The measurements started from the first week when the tumor mass was established. After 43 days of treatment, were anesthetized with sodium pentobarbital (50 mg/kg BW IP) and tumor tissues were harvested from the flanks of the mice. Heart, liver, and kidney tissues were collected for evaluation of organ damage by H&E staining of paraffin-embedded sections ([…]). All experiments were conducted under the guidelines of the Scott & White and Texas A&M HSC IACUC Committee. Tumors were allowed to grow until maximum allowable tumor burden was reached as set forth by the Scott & White and Texas A&M HSC IACUC tumor burden policy. Tumor tissues were fixed for 4 hr in 10% buffered formalin and embedded in low-temperature fusion paraffin. […] Semiquantitative analysis for these markers was evaluated by image-analysis software, Image-Pro Plus (Media Cybernetics, Silver Springs, Md.) (Lejeune et al., 2008). Three randomly chosen fields were calculated for statistics.

For data set [2], the system named is AANAT. As to the kind of experiment: Expression of AANAT in liver sections, cholangiocytes, pineal gland and small intestine (immunohistochemistry, real-time PCR). The format is in vivo, rat. Here is the method:
Male Fischer 344 rats (150-175 gm) were purchased from Charles River Laboratories (Wilmington, Mass.) and housed at 22° C. with 12:12 hr light/dark cycles. The animals had free access to standard chow and drinking water. […] Animal experiments were performed in accordance with a protocol approved by the Scott & White and Texas A&M Health Science Center IACUC. In separate experiments, normal rats treated with Vivo-Morpholino sequences of AANAT (5'-[…] NO:1), to reduce the biliary expression of AANAT) or Morpholino mismatched (5'-[…] NO:2)) (Gene Tools LCC) (1 mg/Kg BW/day) for 1 week via an implanted portal vein catheter. Serum, liver tissue, cholangiocytes, kidney, spleen, small intestine, stomach and heart were collected. Since our goal was to knock-down AANAT expression in the liver without inhibiting AANAT expression in other organs, we used a lower dose (1 mg/Kg/day) of Vivo-Morpholino than that described in the original study (3.0 mg/kg/day (Arora et al., 2002). This approach minimizes the amount of Vivo-Morpholino that circulates outside of the liver after slow infusion into the portal vein. See below for the surgical procedure for the implantation of the portal vein catheter by which AANAT Vivo-Morpholino or Morpholino mismatched was administered. The following was evaluated: (i) the expression of AANAT in liver sections and cholangiocytes from the selected groups of animals; and (ii) the effectiveness of the AANAT Vivo-Morpholino in lowering the expression of AANAT in cholangiocytes was determined. […] Data were expressed as relative mRNA levels ±SEM of the selected gene to glyceraldehyde-3-phosphate dehydrogenase (GAPDH) ratio. […]

[3] abbreviates: normal rats, 1 mg/Kg BW/day 1 week vs. controls.

For `COc1ccc2[nH]cc(CCNC(C)=O)c2c1` [melatonin], in data set [1], the Body weight came to 35.25 ± 0.73 gm, the Liver to body is reported as 8.01% ± 0.21 and the Liver weight was found to be 2.82 ± 0.13 gm. The “Expression of AANAT in bile ducts” value in data set [2] (BDL rats treated with melatonin (20 mg/L in tap water) 1 week) is recorded as “increased”.
For “AANAT Vivo-Morpholino: Vivo-Morpholino sequence of AANAT 5′-GTTCCCCAGCTTTGGAAGTGGTCCC (SEQ ID NO:1), to reduce the biliary expression of AANAT (all phosphorodiamidate morpholino (PMO); Vivo-Morpholino delivery moiety attached, position not given here, further chemistry not fully specified)”, in data set [2] (setting [3]), the AANAT biliary expression entry is reported as “reduced”; the “AANAT mRNA levels in pineal gland and small intestine” value was “increased”.

The record behind these values is patent US9468670B2, “Melatonin-based treatment and diagnosis of bile duct disease” (Texas A&M University System, priority 2011, dated 2016).
